We go through 23 compounds from PubChem BioAssay AID192 (DTP/NCI, 2004).

In this experiment the test system is BDF1 mice, B16 melanoma ip, median survival T/C. The experiment can be described thus: NCI In Vivo Anticancer Drug Screen. Data for tumor model B16 Melanoma (intraperitoneal) in B6D2F1 (BDF1) mice. The note with it: endpoint: median survival time, higher = longer survival. Put shortly:
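Transplantable tumor model; survival or tumor size measured; reported as T/C, treated over vehicle control.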

Where [1] appears, read: dose: 100.0 mg/kg/injection, schedule: Q01DX009 (ip), vehicle: Klucel (hydroxypropylcellulose) (HPC).
[2] abbreviates: dose: 200.0 mg/kg/injection, schedule: Q01DX009 (ip), vehicle: Klucel (hydroxypropylcellulose) (HPC).
Where [3] appears, read: dose: 400.0 mg/kg/injection, schedule: Q01DX009 (ip), vehicle: Klucel (hydroxypropylcellulose) (HPC).
The mark [4] stands for this setting: dose: 6.25 mg/kg/injection, schedule: Q01DX009 (ip), vehicle: water.
Where [5] appears, read: dose: 12.5 mg/kg/injection, schedule: Q01DX009 (ip), vehicle: water.
Setting [6] is: dose: 25.0 mg/kg/injection, schedule: Q01DX009 (ip), vehicle: water.
Setting [7] is: dose: 50.0 mg/kg/injection, schedule: Q01DX009 (ip), vehicle: water.
The mark [8] stands for this setting: dose: 25.0 mg/kg/injection, schedule: Q01DX009 (ip), vehicle: Klucel (hydroxypropylcellulose) (HPC).
The mark [9] stands for this setting: dose: 50.0 mg/kg/injection, schedule: Q01DX009 (ip), vehicle: Klucel (hydroxypropylcellulose) (HPC).
The mark [10] stands for this setting: dose: 25.0 mg/kg/injection, schedule: Q01DX009 (ip), vehicle: saline with Tween-80.
Where [11] appears, read: dose: 50.0 mg/kg/injection, schedule: Q01DX009 (ip), vehicle: saline with Tween-80.
The mark [12] stands for this setting: dose: 100.0 mg/kg/injection, schedule: Q01DX009 (ip), vehicle: saline with Tween-80.
Setting [13] is: dose: 50.0 mg/kg/injection, schedule: Q01DX009 (ip), vehicle: saline.
The mark [14] stands for this setting: dose: 100.0 mg/kg/injection, schedule: Q01DX009 (ip), vehicle: saline.
Where [15] appears, read: dose: 200.0 mg/kg/injection, schedule: Q01DX009 (ip), vehicle: saline.
The mark [16] stands for this setting: dose: 25.0 mg/kg/injection, schedule: Q01DX009 (ip), vehicle: saline.
Where [17] appears, read: dose: 200.0 mg/kg/injection, schedule: Q01DX009 (ip), vehicle: saline with Tween-80.
Setting [18] is: dose: 400.0 mg/kg/injection, schedule: Q01DX009 (ip), vehicle: saline with Tween-80.

SMILES strings stand for the structures. Where “and” joins values, the source holds several entries; their conditions need not be identical. Equal entries are not always repeated. Toxic doses and inconclusive results are not listed.

Take `Cc1cnc(/C=N\NC(N)=S)c2cccc(N)c12`: the T/C reads like this: (dose: 3.12 mg/kg/injection, schedule: Q01DX009 (ip), vehicle: saline with Tween-80) 100 % of control; (dose: 3.13 mg/kg/injection, schedule: Q01DX009 (ip), vehicle: Klucel (hydroxypropylcellulose) (HPC)) 102 % of control; (dose: 3.13 mg/kg/injection, schedule: Q01DX009 (ip), vehicle: saline with Tween-80) 114 % of control; (dose: 6.25 mg/kg/injection, schedule: Q01DX009 (ip), vehicle: Klucel (hydroxypropylcellulose) (HPC)) 114 % of control; (dose: 6.25 mg/kg/injection, schedule: Q01DX009 (ip), vehicle: saline with Tween-80) 103 % of control and 124 % of control; (dose: 12.5 mg/kg/injection, schedule: Q01DX009 (ip), vehicle: Klucel (hydroxypropylcellulose) (HPC)) 115 % of control.

For the compound `NC(=O)c1ccccc1NC(=O)c1ccccc1Cl`, the T/C was 100 % of control under setting [1], 97 % of control under setting [2] and 102 % of control under setting [3].

Turning to `NC(CNC(=O)C(Cl)Cl)C(=O)O` (centres undefined), the T/C by setting is: under setting [4], 93 % of control; under setting [5], 105 % of control; under setting [6], 100 % of control; under setting [7], 98 % of control; (dose: 100.0 mg/kg/injection, schedule: Q01DX009 (ip), vehicle: water) 89 % of control.

`CN(C)c1ccc2c(SCC(=O)OCC(=O)[C@@]3(O)CC[C@H]4[C@@H]5CCC6=CC(=O)C=C[C@]6(C)[C@H]5C(=O)C[C@@]43C)c3ccc(N(C)C)cc3nc2c1`: the T/C under setting [8] was 101 % of control; the T/C under setting [9] is 96 % of control; the T/C under setting [1] is 101 % of control; the T/C under setting [2] is 113 % of control; the T/C under setting [3] was 98 % of control.

`CCN(CC)CCNc1ccc([N+](=O)[O-])cc1[N+](=O)[O-]`: the T/C by setting is: under setting [10], 100 % of control; under setting [11], 113 % of control; (dose: 50.0 mg/kg/injection, schedule: Q04DX003 (ip), vehicle: saline with Tween-80) 102 % of control; under setting [12], 100 % of control; (dose: 100.0 mg/kg/injection, schedule: Q04DX003 (ip), vehicle: saline with Tween-80) 100 % of control.

Consider `COc1ccc(N2CSC(=S)N(c3ccc(OC)cc3)C2)cc1`, for which the T/C (dose: 8.0 mg/kg/injection, schedule: Q01DX009 (ip), vehicle: saline with Tween-80) is 97 % of control; the T/C (dose: 12.0 mg/kg/injection, schedule: Q01DX009 (ip), vehicle: saline with Tween-80) was 90 % of control; the T/C (dose: 18.0 mg/kg/injection, schedule: Q01DX009 (ip), vehicle: saline with Tween-80) was 90 % of control; the T/C under setting [8] was 102 % of control; the T/C under setting [10] is 112 % of control; the T/C under setting [9] is 94 % of control. Also, the T/C is, setting by setting: under setting [11], 115 % of control; under setting [1], 114 % of control.

For `Cc1ncc(CO)c(CO)c1O`, the T/C by setting is: under setting [13], 100 % of control; (dose: 50.0 mg/kg/injection, schedule: Q08HX018 (ip), vehicle: saline) 101 % of control; under setting [14], 100 % of control; (dose: 100.0 mg/kg/injection, schedule: Q08HX018 (ip), vehicle: saline) 99 % of control; under setting [15], 100 % of control; (dose: 200.0 mg/kg/injection, schedule: Q08HX018 (ip), vehicle: saline) 95 % of control. Besides, the T/C reads like this: (dose: 400.0 mg/kg/injection, schedule: Q01DX009 (ip), vehicle: saline) 91 % of control; (dose: 400.0 mg/kg/injection, schedule: Q08HX018 (ip), vehicle: saline) 92 % of control; (dose: 800.0 mg/kg/injection, schedule: Q01DX009 (ip), vehicle: saline) 87 % of control; (dose: 800.0 mg/kg/injection, schedule: Q08HX018 (ip), vehicle: saline) 89 % of control.

For the compound `Nc1nc(-c2ccccc2N=NN2CCCC2)nc2ccccc12`, the T/C was 95 % of control under setting [8] and 94 % of control under setting [9].

For `CCN(CC)C(=O)c1cccnc1`, the T/C was 109 % of control (dose: 12.5 mg/kg/injection, schedule: Q01DX009 (ip), vehicle: saline); 123 % of control under setting [16]; 107 % of control under setting [13]; 103 % of control under setting [14]; 102 % of control under setting [15].

As to `CC1Cc2c(Cl)cc(C(=O)NC(Cc3ccccc3)C(=O)O)c(O)c2C(=O)O1` (centres undefined), the T/C was 112 % of control (dose: 0.12 mg/kg/injection, schedule: Q01DX009 (ip), vehicle: saline with Tween-80); 119 % of control (dose: 0.25 mg/kg/injection, schedule: Q01DX009 (ip), vehicle: saline with Tween-80); 114 % of control (dose: 0.5 mg/kg/injection, schedule: Q01DX009 (ip), vehicle: saline with Tween-80).

With `COc1cc2c(cc1OC)/C(=N/N)CCC2`, the T/C is, setting by setting: under setting [4], 99 % of control; under setting [5], 92 % of control; under setting [6], 93 % of control; under setting [7], 97 % of control.

Consider `CCOCCc1ccccn1`, for which the T/C reads like this: (dose: 12.5 mg/kg/injection, schedule: Q04DX003 (ip), vehicle: saline) 106 % of control; (dose: 25.0 mg/kg/injection, schedule: Q04DX003 (ip), vehicle: saline) 100 % of control; (dose: 50.0 mg/kg/injection, schedule: Q04DX003 (ip), vehicle: saline) 96 % of control.

On to `NNC(=O)c1cccc(C(=O)NN)c1`, for which the T/C by setting is: under setting [12], 97 % of control; under setting [17], 100 % of control; under setting [18], 97 % of control.

With `Nc1nc(-c2ccccc2)c(Br)c(=O)[nH]1`, the T/C under setting [18] was 150 % of control.

For `C=C1C(=O)C2(C)OC2(C)C1C(=O)O` (centres undefined), the T/C (dose: 1.25 mg/kg/injection, schedule: Q01DX009 (ip), vehicle: Klucel (hydroxypropylcellulose) (HPC)) is 109 % of control; the T/C (dose: 2.5 mg/kg/injection, schedule: Q01DX009 (ip), vehicle: Klucel (hydroxypropylcellulose) (HPC)) was 105 % of control; the T/C (dose: 5.0 mg/kg/injection, schedule: Q01DX009 (ip), vehicle: Klucel (hydroxypropylcellulose) (HPC)) was 99 % of control; the T/C (dose: 10.0 mg/kg/injection, schedule: Q01DX009 (ip), vehicle: Klucel (hydroxypropylcellulose) (HPC)) is 93 % of control.

With `C1CCN(CCC2CCCCN2)CC1` (centres undefined), the T/C was 106 % of control under setting [16] and 100 % of control under setting [13].

For `C[C@]12CCC(=O)C=C1[C@@H](F)C[C@@H]1[C@@H]2[C@@H](O)C[C@@]2(C)[C@H]1CC[C@]2(O)C(=O)CO`, the T/C by setting is: (dose: 25.0 mg/kg/injection, schedule: Q01DX009 (sc), vehicle: steriod suspending solution) 95 % of control; (dose: 50.0 mg/kg/injection, schedule: Q01DX009 (sc), vehicle: steriod suspending solution) 97 % of control; (dose: 100.0 mg/kg/injection, schedule: Q01DX009 (sc), vehicle: steriod suspending solution) 101 % of control.

On to `N/C=N/O`, for which the T/C was 104 % of control under setting [16], 111 % of control under setting [13], 109 % of control under setting [14] and 117 % of control under setting [15].

In the case of `CC(C)NC(=O)c1ccc(N/N=[N+](/C)[O-])cc1`, the T/C under setting [10] is 121 % of control; the T/C under setting [11] was 107 % of control; the T/C under setting [12] was 93 % of control and 111 % of control.

`O=c1cc(-c2ccccc2)[nH]c(=S)[nH]1`: the T/C is 114 % of control under setting [12] and 108 % of control under setting [17].

On to `CC(C)CC(C)(c1ccc(O)cc1)c1ccc(O)cc1`, for which the T/C is 98 % of control under setting [12] and 98 % of control under setting [17].

As to `Nc1nc(Nc2ccccc2)nc(C(=O)O)n1`, the T/C is 100 % of control (dose: 100.0 mg/kg/injection, schedule: Q04DX003 (ip), vehicle: Klucel (hydroxypropylcellulose) (HPC)); 97 % of control (dose: 200.0 mg/kg/injection, schedule: Q04DX003 (ip), vehicle: Klucel (hydroxypropylcellulose) (HPC)); 92 % of control (dose: 400.0 mg/kg/injection, schedule: Q04DX003 (ip), vehicle: Klucel (hydroxypropylcellulose) (HPC)).

In the case of `CNCCN(C)CCNC`, the T/C runs as follows: under setting [16], 98 % of control; under setting [13], 89 % of control; under setting [14], 95 % of control.
